Source: the supplement of paper PMC8967900

How the values were obtained:
Assay in all cases: selective drug sensitivity score (sDSS, relative to normal bone marrow) (sDSS (score)); higher = more potent and effective on the cell line relative to normal bone marrow cells
Settings in all cases: 72 h
SUP-B15 = test system: SUP-B15
ALL-PO = test system: ALL-PO
SEM cells = test system: SEM cells
NALM-16 = test system: NALM-16
380 = test system: 380
KOPN-8 = test system: KOPN-8
KASUMI-10 = test system: KASUMI-10
MHH-CALL-4 = test system: MHH-CALL-4
MN-60 = test system: MN-60
MOLT-16 = test system: MOLT-16
REH = test system: REH
KASUMI-2 = test system: KASUMI-2
RCH-ACV = test system: RCH-ACV
COG-LL-319h = test system: COG-LL-319h
HPB-ALL = test system: HPB-ALL
NALL-1 = test system: NALL-1
HAL-01 = test system: HAL-01
DND-41 = test system: DND-41
MOLT-4 = test system: MOLT-4
MHH-CALL-2 = test system: MHH-CALL-2
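Also: ALL cell lines in 384-well plates, five doses spanning 10,000-fold, each plate scaled between vehicle and 100 µmol/L benzalkonium chloride controls, sDSS an adapted area-under-curve metric.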

SMILES	selective drug sensitivity score (SUP-B15)	selective drug sensitivity score (ALL-PO)	selective drug sensitivity score (SEM cells)	selective drug sensitivity score (NALM-16)	selective drug sensitivity score 380	selective drug sensitivity score (KOPN-8)	selective drug sensitivity score (KASUMI-10)	selective drug sensitivity score (MHH-CALL-4)	selective drug sensitivity score (MN-60)	selective drug sensitivity score (MOLT-16)	selective drug sensitivity score (REH)	selective drug sensitivity score (KASUMI-2)	selective drug sensitivity score (RCH-ACV)	selective drug sensitivity score (COG-LL-319h)	selective drug sensitivity score (HPB-ALL)	selective drug sensitivity score (NALL-1)	selective drug sensitivity score (HAL-01)	selective drug sensitivity score (DND-41)	selective drug sensitivity score (MOLT-4)	selective drug sensitivity score (MHH-CALL-2)
Cc1ccc(NS(=O)(=O)c2cccc(C#N)c2)c2[nH]cc(C#N)c12 [E7820] (top concentration 50000 nM)	8.72	4.92	19.5	1.82	30.8	19.8	4.62	7.62	-1.88	22.6	13.7	5.82	23.2	18	11	6.42	12.3	9.82	1.82	19.4
C[C@@H]1CN(C(=O)c2ccc(NC(=O)c3cc(O[C@H](C)c4c(Cl)ccc(F)c4Cl)c(N)nn3)cc2)C[C@H](C)N1 [Ensartinib] (top concentration 1000 nM)	3.86	0.26	-0.34	-2.14	0.06	1.16	-2.84	-2.84	-2.84	-0.74	-2.24	-1.54	-1.44	-2.64	-2.84	-2.84	-2.84	-2.84	-0.54	-2.84
c1cn2cc(-c3ccc4cn[nH]c4c3)nc(Nc3ccc(N4CCOCC4)cc3)c2n1 [Entospletinib] (top concentration 5000 nM)	1.36	7.26	4.56	-0.64	-0.64	1.46	-0.64	-0.64	-0.64	-0.64	-0.64	-0.64	12.3	-0.64	-0.64	-0.64	-0.64	-0.64	-0.64	-0.64
COc1cc([C@@H]2c3cc4c(cc3[C@@H](O[C@@H]3O[C@@H]5CO[C@@H](C)O[C@H]5[C@H](O)[C@H]3O)[C@H]3COC(=O)[C@H]23)OCO4)cc(OC)c1O [Etoposide] (top concentration 10000 nM)	26.8	5.44	15.5	2.64	21.3	24.9	13	10.2	-0.86	28.9	20.3	20.9	25.1	23.2	7.74	14.9	5.14	11.3	23.5	13.2
CCCCCCCCc1ccc(CCC(N)(CO)CO)cc1 [Fingolimod] (top concentration 10000 nM)	7.48	2.28	0.48	-0.02	-1.12	3.18	-0.72	1.58	1.28	5.38	-1.52	-0.82	0.98	0.28	1.68	6.18	1.88	1.28	1.78	8.88
O=C(NOCCO)c1ccc2cncn2c1Nc1ccc(I)cc1F [GDC-0623] (top concentration 2500 nM)	-3	-3.3	-3.4	0.1	-0.4	-1.2	-3.4	-2.1	-3.4	-1.6	-3.4	0.3	-3.4	-2.1	3.6	-0.5	3.1	0.2	-3.3	0.6
C[C@H]1CN(C2COC2)CCN1c1ccc(Nc2cc(-c3ccnc(N4CCn5c(cc6c5CC(C)(C)C6)C4=O)c3CO)cn(C)c2=O)nc1 [GDC-0853] (top concentration 1000 nM)	0	0	0	0	0	0	0	0.2	0	0	0.2	0	0	2.8	0.4	0	0	0	0	0
CCNc1nc(Nc2cc(F)c(C(=O)N3CCOCC3)cc2OC)ncc1C(F)(F)F [GNE-7915] (top concentration 1000 nM)	-0.06	-0.06	-0.06	-0.06	-0.06	-0.06	-0.06	-0.06	-0.06	-0.06	-0.06	-0.06	-0.06	-0.06	-0.06	-0.06	1.04	-0.06	-0.06	1.74
